Measured values from patent publication US12570666B2, “Furoindazole derivatives” (Bayer Aktiengesellschaft, priority 2019, dated 2026).

Molecular target: T1, human GPR84 receptor (Homo sapiens, UniProt Q9NQS5)
T1 construct: frozen aliquots prepared by acCELLerate; host or cells: CHO-K1
Experiment: cAMP HTRF assay for identification of cellular GPR84 antagonists
Format: cell-based
Conditions: CHO-K1 cells stably expressing human GPR84; Forskolin + agonist 6-OAU (EC80); average or median values
Method in brief: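 Forskolin-stimulated CHO-K1 cells stably expressing human GPR84, agonist-suppressed cAMP measured by HTRF (665/620 ratio) after lysis. Compounds at 11 concentrations, 20 μM to 0.07 nM, duplicate; normalized to DMSO and no-agonist controls; IC50 by 4-parameter fit.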

T1 sequence (Q9NQS5 whole entry): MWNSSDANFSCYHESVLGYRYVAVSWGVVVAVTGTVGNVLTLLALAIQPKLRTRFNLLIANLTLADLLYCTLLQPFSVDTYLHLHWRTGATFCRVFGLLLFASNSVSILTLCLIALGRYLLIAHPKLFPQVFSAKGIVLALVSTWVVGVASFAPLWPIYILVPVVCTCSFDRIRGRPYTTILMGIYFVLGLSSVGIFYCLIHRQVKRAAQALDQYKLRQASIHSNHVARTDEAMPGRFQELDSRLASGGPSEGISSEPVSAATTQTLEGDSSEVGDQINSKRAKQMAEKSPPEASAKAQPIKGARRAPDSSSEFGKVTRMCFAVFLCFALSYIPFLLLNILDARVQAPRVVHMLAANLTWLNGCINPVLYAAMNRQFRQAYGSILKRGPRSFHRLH

Compound	IC50 [nM]
C[C@@H]1Cc2oc(C(=O)NC[C@@H]3CCCO3)c(C(F)(F)F)c2-c2nn(CC3CCN(C(=O)C4CC4)CC3)cc21 (single isomer, unassigned) [Example 290, (4R or 4S)-2-{[1-(cyclopropanecarbonyl)piperidin-4-yl]methyl}-4-methyl-N-{[(2S)-oxolan-2-yl]methyl}-8-(trifluoromethyl)-4,5-dihydro-2H-furo[2,3-g]indazole-7-carboxamide]	4
O=C(NC[C@@H]1CCCO1)c1oc2c(c1C(F)(F)F)-c1nn(CC3CCOCC3)cc1CC2 [Example 243, 2-[(oxan-4-yl)methyl]-N-{[(2S)-oxolan-2-yl]methyl}-8-(trifluoromethyl)-4,5-dihydro-2H-furo[2,3-g]indazole-7-carboxamide]	26
[2H]C([2H])(c1ccccc1)n1cc2c(n1)-c1c(oc(C(=O)NC[C@@H]3COCCO3)c1C)CC2 [Example 136, N-[(2R)-1,4-dioxan-2-ylmethyl]-8-methyl-2-[phenyl(^2H2)methyl]-4,5-dihydro-2H-furo[2,3-g]indazole-7-carboxamide]	25
Cc1c(C(=O)NC[C@@H]2COCCO2)oc2c1-c1nn(Cc3ccccn3)cc1C1(CC1)C2 [Example 150]	11
O=C(NC[C@@H]1CCCO1)c1oc2c(c1C(F)(F)F)-c1nn(Cc3ccccn3)cc1C1(CC1)C2 [Example 218, N-{[(2S)-oxolan-2-yl]methyl}-2′-[(pyridin-2-yl)methyl]-8′-(trifluoromethyl)-2′,5′-dihydrospiro[cyclopropane-1,4′-furo[2,3-g]indazole]-7′-carboxamide]	9
O=C(NCC1CC(F)(F)CO1)c1oc2c(c1C(F)(F)F)-c1nn(C[C@H]3COCCO3)cc1CC2 (mixture of isomers) [Example 222, N-{[(2±)-4,4-difluorooxolan-2-yl]methyl}-2-{[(2S)-1,4-dioxan-2-yl]methyl}-8-(trifluoromethyl)-4,5-dihydro-2H-furo[2,3-g]indazole-7-carboxamide]	20
Cc1c(C(=O)NCc2ccon2)oc2c1-c1nn(CC3COc4ncccc4O3)cc1CC2 (single isomer, unassigned) [Example 55-1]	340
Cc1c(C(=O)NC[C@H]2COCCO2)oc2c1-c1nn(Cc3ccccn3)cc1CC2 [Example 19-2, N-{[(2S)-1,4-dioxan-2-yl]methyl}-8-methyl-2-[(pyridin-2-yl)methyl]-4,5-dihydro-2H-furo[2,3-g]indazole-7-carboxamide]	830
Cc1c(C(=O)NC[C@@H]2COCCO2)oc2c1-c1nn(CCN)cc1CC2 [Example 161, 2-(2-aminoethyl)-N-[(2R)-1,4-dioxan-2-ylmethyl]-8-methyl-4,5-dihydro-2H-furo[2,3-g]indazole-7-carboxamide]	6520
Cc1c(C(=O)NCc2ncco2)oc2c1-c1nn(Cc3ccccn3)cc1CC2 [Example 32, 8-methyl-N-(1,3-oxazol-2-ylmethyl)-2-(pyridin-2-ylmethyl)-4,5-dihydro-2H-furo[2,3-g]indazole-7-carboxamide]	150
Cc1c(C(=O)NC[C@@H]2CCCO2)oc2c1-c1nn(CC3(C)COC3)cc1CC2 [Example 93, 8-methyl-2-[(3-methyloxetan-3-yl)methyl]-N-[(2S)-tetrahydrofuran-2-ylmethyl]-4,5-dihydro-2H-furo[2,3-g]indazole-7-carboxamide]	17
O=C(NC[C@@H]1COCCO1)c1oc2c(c1C(F)(F)F)-c1nn(CC3CCN(C(=O)C4CC4)CC3)cc1CC2 [Example 285, 2-{[1-(cyclopropanecarbonyl)piperidin-4-yl]methyl}-N-{[(2R)-1,4-dioxan-2-yl]methyl}-8-(trifluoromethyl)-4,5-dihydro-2H-furo[2,3-g]indazole-7-carboxamide]	21
Cc1c(C(=O)NCC2CCOCC2)oc2c1-c1nn(Cc3ccccn3)cc1CC2 [Example 171]	3690
Cc1c(C(=O)NC[C@H]2CCC3(COC3)O2)oc2c1-c1nn(C[C@H]3COCCO3)cc1C1(CC1)C2 (single isomer, unassigned) [Example 201-1]	683
CCc1ccc(Cn2cc3c(n2)-c2c(oc(C(=O)NC[C@@H]4COCCO4)c2C)CC3)cn1 [Example 187]	40
Cc1ccc(Cn2cc3c(n2)-c2c(oc(C(=O)NC[C@@H]4CCCO4)c2C)CC32CC2)cn1 [Example 211]	17
Cc1c(C(=O)NC[C@@H]2COCCO2)oc2c1-c1nn(CCN3CCNCC3)cc1CC2 [Example 163, N-[(2R)-1,4-dioxan-2-ylmethyl]-8-methyl-2-[2-(piperazin-1-yl)ethyl]-4,5-dihydro-2H-furo[2,3-g]indazole-7-carboxamide]	> 20000
Cc1c(C(=O)NCC2CC(F)(F)CO2)oc2c1-c1nn(C[C@H]3COCCO3)cc1C1(CC1)C2 (mixture of isomers) [Example 197]	98
Cc1c(C(=O)NC[C@@H]2COCCO2)oc2c1-c1nn(C[C@H]3COCCO3)cc1CC2 [Example 90, N-[(2R)-1,4-dioxan-2-ylmethyl]-2-[(2S)-1,4-dioxan-2-ylmethyl]-8-methyl-4,5-dihydro-2H-furo[2,3-g]indazole-7-carboxamide]	47
O=C(NC[C@@H]1CCCO1)c1oc2c(c1C(F)(F)F)-c1nn(Cc3ccncc3)cc1C1(CC1)C2 [Example 217, 2′-(Pyridin-4-ylmethyl)-N-[(2S)-tetrahydrofuran-2-ylmethyl]-8′-(trifluormethyl)-2′,5′-dihydrospiro[cyclopropan-1,4′-furo[2,3-g]indazol]-7′-carboxamide]	6
Cc1ccc(Cn2cc3c(n2)-c2c(oc(C(=O)NC[C@@H]4COCCO4)c2C(F)(F)F)CC32CC2)nc1 [Example 215, N-{[(2R)-1,4-dioxan-2-yl]methyl}-2′-[(5-methylpyridin-2-yl)methyl]-8′-(trifluoromethyl)-2′,5′-dihydrospiro[cyclopropane-1,4′-furo[2,3-g]indazole]-7′-carboxamide]	3
O=C(NC[C@@H]1CCCO1)c1oc2c(c1C(F)(F)F)-c1nn(Cc3ccccn3)cc1C1(CCC1)C2 [Example 274, 2′-(Pyridin-2-ylmethyl)-N-[(2S)-tetrahydrofuran-2-ylmethyl]-8′-(trifluormethyl)-2′,5′-dihydrospiro[cyclobutan-1,4′-furo[2,3-g]indazol]-7′-carboxamide]	10
Cc1c(C(=O)NC[C@@H]2COCCO2)oc2c1-c1nn(C[C@@H]3COCCO3)cc1CC2 [Example 88, N,2-bis[(2R)-1,4-dioxan-2-ylmethyl]-8-methyl-4,5-dihydro-2H-furo[2,3-g]indazole-7-carboxamide]	110
Cc1c(C(=O)NCCN2CCN(c3cccc(C(F)(F)F)c3)CC2)oc2c1-c1nn(Cc3ccccn3)cc1CC2 [Example 13, 8-methyl-2-(pyridin-2-ylmethyl)-N-(2-{4-[3-(trifluoromethyl)phenyl]piperazin-1yl}ethyl)-4,5-dihydro-2H-furo[2,3-g]indazole-7-carboxamide]	1650
O=C(NCc1ncco1)c1oc2c(c1C(F)(F)F)-c1nn(Cc3ccccn3)cc1C1(CCC1)C2 [Example 275, N-(1,3-Oxazol-2-ylmethyl)-2′-(pyridin-2-ylmethyl)-8′-(trifluormethyl)-2′,5′-dihydrospiro[cyclobutan-1,4′-furo[2,3-g]indazol]-7′-carboxamide]	141
